“Also recorded” adds a separate entry of the source. Where two headings read alike, the source gives them in different places.
Assays:
[1] = system: right auricle from the guinea pig; assay: Dual preparation test in vitro, effect on auricle (Example 5c); conditions: slow infusion, FIGS. 2-4; for cardiac stimulation in relation to bronchodilator effect: both preparations in same bath
Text: [This procedure is more fully described below in Example 5 (b)].
FIG. 2 illustrates the effect of epinephrine (EPE) and terbutaline on spirally cut trachea and right auricle from the guinea pig. Both preparations are dissected out from the same animal and run under identical experimental conditions;
Both preparations are dissected out from the same animal, and run under identical experimental conditions;
Both preparations are dissected out from the same animal and run under identical experimental conditions;
The relation between the heart stimulatory effect and bronchodilator effect was studied in vitro on auricle-trachea-preparation from the guinea pig in order to compare the effect on the heart and the effect on the bronchial muscle under identical experimental conditions. Both spontaneously bearing auricle and spirally-cut trachea were placed in the same bath in Krebs solution. Both preparations were taken from the same animal.
The compound to be tested was slowly infused into the bathing solution and the tension was measured for each of the auricle and trachael preparations.
In carrying out this dual preparation test, epinephrine was used as a reference. […] Infusion of epinephrine was made over a period of ten minutes. After washing and recovery, the test solution was infused in the same manner and the effect of the test compound was compared with the effect of epinephrine.
Referring more specifically to FIG. 2, the upper portion of each chart thereof represents the tension continuously recorded of the auricle preparation (shaded area 1 for the effect of epinephrine on the auricle, ref. no. 2 for the effect of terbutaline infused at a rate of 0.2 μg/min on the auricle, and ref. no. 3 for the effect of terbutaline infused at a rate of 0.375μg/min on the auricle).

[2] = system: sphincter of Oddi (choledochoduodenal sphincter); assay: Effect on sphincter of Oddi (Example 5e); assay type: in vivo, cat; conditions: anesthetized cats; for duodenal pressure / motility / heart rate: concurrent with sphincter effect; for common bile duct pressure / sphincter relaxation: i.v., 1 μg/kg terbutaline in FIG. 7, FIG. 8
Experimental: The effect of terbutaline on the choledochoduodenal sphincter of young, healthy cats was studied. Young animals weighing at least 2.0 kg were used. After being deprived of food but not water for 24 hours, they were anesthetized with pentobarbitol (40 mg/kg i.p.). The terminal portion of a common bile duct was isolated and cannulated toward the duodenum. The hepatic part of the bile duct was drained to prevent distention. The pressure was continuously recorded by the open tip technique. Details of the experimental set up have been published by Liedberg and Halabi [Acta. Chir. Scand. 136 (1970) page 208.] Heart rate was recorded on all experiments and blood pressure by arterial cannulation in some.
Referring to the upper curve of FIGS. 7 and 8, the heart rate is continuously recorded. Concurrent records are made in the middle curve and lower curve of the pressures measured respectively in the common bile duct and in the lower duodenum.
As a control in this test, the animal was also treated with 0.5 international units per kg of cholecystokinin (CCK).
In a second test of the effect of terbutaline and isoprenaline on the sphincter (see FIG. 8), the duodenal motility was measured without being affected by CCK.

[3] = system: adrenergic receptors; conditions: cited from earlier work
[4] = system: bronchoconstriction by histamine aerosol; assay: Protecting effect against histamine aerosol in guinea pigs (Example 15); assay type: in vivo, guinea pig; conditions: Cavia porcellus, read-out: ED50 (protecting 50 percent of the animals for more than 4 minutes)
Text: Male guinea pigs (200--300 g) were used. Bronchoconstriction was produced by letting the animals inhale a histamine aerosol.

[5] = system: mice; assay: Toxicity study in mice (Example 18); assay type: in vivo; conditions: mouse, in vivo, po
Experimental: (§1) The toxicity was studied in mice (NMRI, male, 18-28 g) 24 hours after i.v. and oral administration. The animals were observed during five days. No further deaths occurred.

[6] = Toxicity study in mice (Example 18); assay type: in vivo; conditions: mouse, in vivo, read-out: LD 50 + Standard error
Experimental: as §1

[7] = system: isolated guinea pig heart; assay: Effect on isolated heart from guinea pig, Langendorff (Example 16); conditions: per se
Experimental: The isolated guinea pig heart was perfused according to Langendorff. The method used is described by Anden et al. [Acta Pharmacol. et Toxicol. 21, 247, (1964)]. Contractions in the heart were recorded by a force displacement transducer and a Grass polygraph model 5. The recovery of the heart was tested with (-) epinephrine between every dose of the substance tested. Terbutaline was used as reference.

[8] = system: guinea pig trachea; assay: Bronchospasmolytic effect in vitro (Example 13); conditions: per se
Experimental: The trachea from a guinea pig was dissected out and spirally cut. It was mounted in a water-jacketed bath (37°C.) in Krebs solution and aerated with oxygen (95%) and carbon dioxide (5%). Pilocarpine (2 μg/ml) was added. The load was adjusted to about 2 g and relaxations in the trachea were recorded by means of a Grass force displacement transducer and a Grass polygraph model 5 (see Example 5 above). The cumulative method was used (-)-Epinephrine was used as reference. The comparisons presented in Table 7 are based on ED50 -values.

[9] = system: bronchial asthma; assay: Clinical study in asthmatic patients (Example 6); assay type: in vivo, human
Experimental: All the patients were hospitalized for severe bronchial asthma. Before the patients were selected for the trial, spirometry was performed before and after isoprenaline inhalations to make sure that their obstruction was at least partly reversible by bronchodilating drugs. The tests were performed when the patients were in a relatively steady state of moderate asthmatic discomfort. Every morning during the trial control measurements of forced expiratory volume in one second (FEV1.0) were made. These values had to be less than 70% of the predicted normal value taking in consideration sex, age and heights. All the patients were under treatment of different drugs for their asthma. Other bronchodilating drugs were withdrawn at least 6 hours before the start of the measurements. Most of the patients were treated with steroids, antibiotics and expectorants before the start of the trial. This regimen was continued unchanged during the trial period.
Twenty-four took part in the study, 10 male and 14 female. Average age was 51 years (range 15-71 years), mean body weight 64 kg (range 44-88 kg.) and height 166 cm (range 150-187 cm).
The trial was performed as a double blind study during three consecutive days with the patients serving as their own control. […] The order of treatment was randomized according to the principle of Latin squares.
Lung function tests were made immediately before the administration of the tablets and after 1, 2, 3, 5 and 7 hours. FEV1.0 was measured using a Vitalograph spirometer. The highest value of three measurements on each occasion was used in the calculations. All the patients had been trained to perform the tests the day before the start of the trial. After 3 and 7 hours, the patients were questioned for side effects. The same, specially trained, nurse assisted throughout the whole investigation.
The "Student's" t-test was used for statistical evaluation of the results. The degree of significance for the differences is given as almost significant (p<0.05^x) significant (p<0.01^xx) and highly significant (p<0.001^xxx).

[10] = system: isolated rabbit heart; assay: Effect on isolated heart, Langendorff preparation (Example 5d); conditions: injection; FIG. 5
Experimental: The effect of the compound of the present invention was also studied on isolated rabbit heart (Langendorff preparation) the method used as described by Anden et al. (Acta Pharmacol. et Toxicol., 21 (1964) page 247). In this procedure, the isolated heart is mounted in a Krebs solution and the test compound is injected into it. Measurements are continuously recorded of the rate and force of contraction.
The tests using epinephrine establish a standard of comparison to evaluate subsequent test compounds in the same preparation.

CC(C)NCC(O)c1ccc(O)c(O)c1 (stereo not shown) [isoprenaline, 1-(3',4'-dihydroxyphenyl)-2-(isopropylamino)-ethanol, reference compound]
cardiac stimulation in relation to bronchodilator effect [1]: strong cardiac stimulants in relation to their bronchodilator effect
duodenal pressure / motility [2]: inhibited duodenal motility
heart rate [2]: marked tachycardia
duodenal pressure / motility ([2]; listed as Isoprenaline): differed markedly from terbutaline in its effect on heart rate and intestinal activity
heart rate ([2]; listed as Isoprenaline): differed markedly from terbutaline in its effect on heart rate and intestinal activity
common bile duct pressure / sphincter relaxation [2]: reduces common bile duct pressure
adrenergic receptors stimulated ([3]; background): stimulates β1 and β2 -receptors equally
duration of bronchodilator activity ([3]; background): relatively short-lived
cardiovascular side effects [3]: cardiovascular stimulation, especially tachycardia

CC(C)(C)NCC(O)c1cc(OC(=O)C(C)(C)C)cc(OC(=O)C(C)(C)C)c1 (stereo not shown) [KWD2085]
ED50 ([4]; 0.5 h, oral, 30 minutes before histamine): 0.24 mg/kg
ED50 ([4]; ip, 0.25 h, i.p., 15 minutes before histamine): 0.13 mg/kg
oral absorption in comparison with terbutaline [5]: improved oral absorption in comparison with terbutaline
LD50 at 24 h ([6]; iv): 23 ± 2 mg/kg
LD50 at 24 h ([6]; po): 2200 mg/kg
direct heart effect relative to terbutaline [7]: much less direct heart effect
bronchospasmolytic effect in vitro relative to terbutaline [8]: weaker bronchospasmolytic effect in vitro than terbutaline

CC(C)NCC(O)c1cc(O)cc(O)c1 (stereo not shown) [orciprenaline, 1-(3',5'-dihydroxyphenyl)-2-(isopropylamino)-ethanol, reference compound]
time of maximal response (FEV1.0) ([9]; oral single dose): 2 h
increase of FEV1.0 ([9]; oral, terbutaline 5.0 mg, orciprenaline 20 mg, FIG. 9): clearcut increase of the spirometric values
cardiac stimulation in relation to bronchodilator effect [1]: strong cardiac stimulants in relation to their bronchodilator effect
bronchodilator potency ([3]; background, versus previously used bronchodilators): less potency than previously used bronchodilators

cholecystokinin [reference compound]
duodenal pressure / motility [2]: markedly stimulated the duodenum
common bile duct pressure / sphincter relaxation [2]: relaxed the sphincter

CNC(C)C(O)c1ccccc1 (stereo not shown) [Ephedrine, 1-phenyl-2-(methylamino)propanol]
cardiovascular side effects ([3]; background): palpitations and tachycardia
CNS side effects ([3]; background, oral): anxiety and sleeping disturbances

CNCC(O)c1ccc(O)c(O)c1 (stereo not shown) [epinephrine, 1-(3',4'-dihydroxyphenyl)-2-(methylamino)-ethanol]
cardiac stimulation in relation to bronchodilator effect [1]: affecting both the auricle and tracheal preparations over the concentration range tested
cardiac stimulation in relation to bronchodilator effect ([1]; listed as Epinephrine): bronchodilation and heart muscle stimulation in the same concentration range
effect on auricle (tension) ([1]; 0.375 μg/min where stated): nearly doubled the maximum tension of the auricle
effect on rate and force of isolated heart [10]: increase in the heart rate; also recorded: increase in the force of contraction; also recorded: readily observable
adrenergic receptors stimulated ([3]; background): stimulates α- and β1 - as well as β2 -receptors
cardiovascular side effects ([3]; background): tachycardia, increased cardiac output and sometimes an increase in blood pressure
duration of bronchodilator activity ([3]; background): relatively short-lived

— patent US3937838A, “Orally active bronchospasmolytic compounds and their preparation” (priority 1966, dated 1976)
